Laboratory results from patent US6608086B2, “Dihydropyridines and new uses thereof” (Synaptic Pharmaceutical Corporation, priority 1993, dated 2003).
Counter-ions that a name gives are not always drawn. Like-named read-outs stand apart in the source and are kept apart here.

Columns and labels:
[1] = molecular target: T1, α1C Human Adrenergic Receptor (Homo sapiens, UniProt P35348); assay: Radioligand binding, [3H]prazosin, cloned human α1C adrenergic receptor
T1 construct: The entire coding region of α1C (1401 bp); expressed in transfected cells
T1 sequence (P35348 1-466): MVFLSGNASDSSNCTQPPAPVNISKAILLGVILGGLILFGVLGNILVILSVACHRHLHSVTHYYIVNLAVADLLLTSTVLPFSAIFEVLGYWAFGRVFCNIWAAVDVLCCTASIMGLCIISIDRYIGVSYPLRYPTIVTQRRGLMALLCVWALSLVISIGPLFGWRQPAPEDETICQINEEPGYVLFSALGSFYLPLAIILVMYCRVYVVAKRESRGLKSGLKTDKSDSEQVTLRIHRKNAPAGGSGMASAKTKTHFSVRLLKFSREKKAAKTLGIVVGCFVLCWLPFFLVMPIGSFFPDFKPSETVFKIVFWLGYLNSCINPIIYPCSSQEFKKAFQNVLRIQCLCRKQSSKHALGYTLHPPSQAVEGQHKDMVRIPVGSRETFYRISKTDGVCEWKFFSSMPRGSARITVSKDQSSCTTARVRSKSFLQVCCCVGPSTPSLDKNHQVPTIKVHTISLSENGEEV
Outline: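 LM(tk−) membranes (stable human α1C); [3H]prazosin 0.5 nM; 37° C., 20 min; Tris-HCl 50 mM/MgCl2 1 mM/ascorbate 0.1%, pH 7.5; NSB 10 μM phentolamine; GF/B filtration.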

α2A receptor = molecular target: T2, α2A receptor (Homo sapiens, UniProt P08913); assay: Competition binding, [3H]rauwolscine, human α2A receptor
T2 construct: host or cells: LM(tk-) cells, line L-α2A
T2 sequence (P08913 1-465): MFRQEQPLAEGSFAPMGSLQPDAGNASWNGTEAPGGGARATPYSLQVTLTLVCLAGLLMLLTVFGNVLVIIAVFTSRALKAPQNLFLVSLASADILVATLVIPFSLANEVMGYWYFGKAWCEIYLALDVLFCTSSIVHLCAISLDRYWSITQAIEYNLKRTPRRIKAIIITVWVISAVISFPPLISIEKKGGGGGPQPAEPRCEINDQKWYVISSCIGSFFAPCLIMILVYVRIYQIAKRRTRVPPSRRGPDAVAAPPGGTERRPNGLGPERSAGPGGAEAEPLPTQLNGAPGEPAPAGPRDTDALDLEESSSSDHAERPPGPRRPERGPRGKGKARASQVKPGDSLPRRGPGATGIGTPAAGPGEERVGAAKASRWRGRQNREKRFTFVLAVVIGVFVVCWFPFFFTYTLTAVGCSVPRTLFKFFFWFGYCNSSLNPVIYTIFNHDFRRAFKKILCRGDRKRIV
From the text: (§1) The protocols for these experiments are given below.
(§2) α2 Human Adrenergic Receptors:
(§3) To determine the potency of […], antagonists at the α2 receptors, LM(tk−) cell lines stably transfected with the genes encoding the α2A, α2B, and α2C receptors were used. The cell line expressing the α2A receptor is designated L-α2A, and was deposited on Nov. […] The cell line expressing the α2B receptor is designated L-NGC-α2B, and was deposited on Oct. […] The cell line expressing the α2C receptor is designated L-α2C, and was deposited on Nov. […] Cell lysates were prepared as described above (see Radioligand Binding Assays), and suspended in 25 mM glycylglycine buffer (pH 7.6 at room temperature). Equilibrium competition binding assay were performed using [3H]rauwolscine (0.5 nM), and nonspecific binding was determined by incubation with 10 μM phentolamine. The bound radioligand was separated by filtration through GF/B filters using a cell harvester.

α2C receptor = molecular target: T3, α2C receptor (Homo sapiens, UniProt P18825); assay: Competition binding, [3H]rauwolscine, human α2C receptor
T3 construct: host or cells: LM(tk-) cells, line L-α2C
T3 sequence (P18825 1-462): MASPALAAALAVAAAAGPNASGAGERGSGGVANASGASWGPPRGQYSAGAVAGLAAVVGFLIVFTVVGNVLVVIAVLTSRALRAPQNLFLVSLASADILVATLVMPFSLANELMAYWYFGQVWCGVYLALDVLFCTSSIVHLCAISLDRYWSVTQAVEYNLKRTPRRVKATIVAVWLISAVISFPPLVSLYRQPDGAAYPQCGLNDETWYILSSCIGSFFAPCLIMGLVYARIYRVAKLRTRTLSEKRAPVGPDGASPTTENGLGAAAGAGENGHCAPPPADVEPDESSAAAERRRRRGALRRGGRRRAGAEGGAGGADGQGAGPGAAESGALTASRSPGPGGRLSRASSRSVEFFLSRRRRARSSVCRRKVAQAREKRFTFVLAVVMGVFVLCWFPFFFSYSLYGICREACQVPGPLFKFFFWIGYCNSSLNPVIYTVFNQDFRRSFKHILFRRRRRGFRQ
From the text: as §1, §2, §3

[2] = cloned human receptor in LM(tk-) cell membranes, SEM and n in lines below, read-out: pKi alpha-1 1c (converted)
[3] = [3H]rauwolscine, LM(tk-) cell line L-α2A, SEM and n in lines below, read-out: pKi alpha-2 2a (converted)
[4] = [3H]rauwolscine, LM(tk-) cell line L-α2C, SEM and n in lines below, read-out: pKi alpha-2 2c (converted)
[5] = PKi alpha-1 1c, cloned human receptor, LM(tk-) cell membranes, mean
[6] = [3H]rauwolscine, human receptor, LM(tk-) cell lysates, mean, read-out: PKi alpha-2 2a (converted)
[7] = cloned human receptor, LM(tk-) cell membranes, mean, read-out: PKi alpha-1 1c (converted)
[8] = [3H]rauwolscine, human receptor, LM(tk-) cell lysates, mean, read-out: PKi alpha-2 2c (converted)
[9] = cloned human α1C receptor, LM(tk-) cell membranes, read-out: PKi alpha-1 1c (converted)
[10] = [3H]rauwolscine, human α2A receptor, LM(tk-) cells, read-out: PKi alpha-2 2a (converted)
[11] = [3H]rauwolscine, human α2C receptor, LM(tk-) cells, read-out: PKi alpha-2 2c (converted)

| SMILES | melting point [°C] | Ki [1, 5] [nM] | Ki (α2A receptor; [6]) [nM] | Ki (α2C receptor; [8]) [nM] | also measured |
| --- | --- | --- | --- | --- | --- |
| COC(=O)C1=C(C)NC(C)=C(C(=O)NCCCN2CCC(c3ccccc3)CC2)C1c1ccc([N+](=O)[O-])cc1 (single isomer, unassigned; (+)) [(+)-45, 1,4-Dihydro-3-methoxycarbonyl-2,6-dimethyl-4-(4-nitrophenyl)-5-{N-[3-(4-phenylpiperidin-1-yl)propyl]}carboxamidopyridine hydrochloride hemihydrate] |  |  |  |  | Ki [1, 2]: 9.33 nM; Ki (α2A receptor; [3]): 240 nM; Ki (α2C receptor; [4]): 22.4 nM |
| COC(=O)C1=C(C)NC(C)=C(C(=O)NCCCN2CCC(c3ccccc3)CC2)C1c1ccc(C)cc1 (stereo not shown) [Example 31, 1,4-Dihydro-3-methoxycarbonyl-2,6-dimethyl-4-(4-methylphenyl)-5-(N-(3-(4-phenylpiperidin-1-yl)propyl)carboxamido)pyridine] | 139 to 139.5 |  |  |  | Ki [1, 2]: 1.17 nM; Ki (α2A receptor; [3]): 158 nM; Ki (α2C receptor; [4]): 52.5 nM |
| COc1cc2c(c(OC)c1)CCN(CCCNC(=O)C1=C(c3ccoc3)NC(C)=C(C(N)=O)C1c1ccc([N+](=O)[O-])cc1)C2.Cl.O (stereo not shown) [Example 67] |  |  |  |  | pKi alpha-1 1c ([1]; cloned human receptor in LM(tk-) cell membranes, SEM and n in lines below): 6.48; pKi alpha-2 2a (α2A receptor; [3H]rauwolscine, LM(tk-) cell line L-α2A, SEM and n in lines below): 6.45; pKi alpha-2 2c (α2C receptor; [3H]rauwolscine, LM(tk-) cell line L-α2C, SEM and n in lines below): 7.00 |
| CNC(=O)C1=C(C)NC(C)=C(C(=O)NCCCN2CCC(c3ccccc3)(c3ccccc3)CC2)C1c1ccc2c(c1)OCCO2 (stereo not shown) [Example 163] | 115 to 116 | 18.6 | 1170 |  | Ki (α2C receptor; PKi alpha-2 2c, [3H]rauwolscine, human receptor, LM(tk-) cell lysates, mean): 1230 nM |
| CCC1=C(C(N)=O)C(c2ccc([N+](=O)[O-])cc2)C(C(=O)NCCCN2CCC(C(=O)OC)(c3ccccc3)CC2)=C(CCCCN=[N+]=[N-])N1 (stereo not shown) [Example 165, 2-(4-Azidobutyl)-3-{N-[3-(4-methoxycarbonyl-4-phenylpiperidin-1-yl)propyl]}carboxamido-5-carboxamido-6-ethyl-1,4-dihydro-4-(4-nitrophenyl)pyridine] | 74 to 77 |  | 3020 | 1510 | Ki [1, 7]: 0.501 nM |
| CCC1=C(C(=O)NC)C(c2ccc([N+](=O)[O-])cc2)C(C(=O)NCCCN2CCC(c3ccccc3)(c3ccccc3)CC2)=C(CCCCN)N1 (stereo not shown) [Example 172, 2-(4-Aminobutyl)-6-ethyl-1,4-dihydro-5-(N-methyl)carboxamido-4-(4-nitrophenyl)-3-{N-[3-(4,4-diphenylpiperidin-1-yl)propyl]}carboxamidopyridine] | 105 to 109 | 2.82 | 2340 | 692 |  |
| CCC1=C(C(=O)NC)C(c2ccc([N+](=O)[O-])cc2)C(C(=O)NCCCN2CCC(c3ccccc3)(c3ccccc3)CC2)=C(CCCCOC)N1 (stereo not shown) [Example 173, 6-Ethyl-1,4-dihydro-2-(4-methoxybutyl)-5-(N-methyl)carboxamido-4-(4-nitrophenyl)-3-{N-[3-(4,4-diphenylpiperidin-1-yl)propyl]}carboxamidopyridine] | 98 to 102 | 3.98 | 269 | 1480 |  |
| CCC1=C(C(=O)NC)C(c2ccc([N+](=O)[O-])cc2)C(C(=O)NCCCN2CCC(C(=O)OC)(c3ccccc3)CC2)=C(CCCCOC)N1 (stereo not shown) [Example 174, 6-Ethyl-1,4-dihydro-2-(4-methoxybutyl)-3-{N-[3-(4-methoxycarbonyl-4-phenylpiperidin-1-yl)propyl]}carboxamido-5-(N-methyl)carboxamido-4-(4-nitrophenyl)pyridine] | 71 to 74 |  | 2000 | 676 | Ki [1, 7]: 4.07 nM |
| CC(=O)C1=C(C)NC(CCCCN)=C(C(=O)NCCCN2CCC(c3ccccc3)(c3ccccc3)CC2)C1c1ccc([N+](=O)[O-])cc1 (stereo not shown) [Example 176, 5-Acetyl-2-(4-aminobutyl)-1,4-dihydro-6-methyl-4-(4-nitrophenyl)-3-{N-[3-(4,4-diphenylpiperidin-1-yl)propyl]}carboxamidopyridine] | 76 to 79 | 3.72 | 977 | 724 |  |
| CCC1=C(C(=O)NC)C(c2ccc([N+](=O)[O-])cc2)C(C(=O)NCCCN2CCC(C(=O)OC)(c3ccccc3)CC2)=C(CC)N1 (stereo not shown) [Example 179, 2,6-Diethyl-1,4-dihydro-3-{N-[3-(4-methoxycarbonyl-4-phenyl-piperidin-1-yl)propyl]}carboxamido-5-(N-methyl)carboxamido-4-(4-nitrophenyl)pyridine] |  |  |  |  | Ki [1, 7]: 3.31 nM; Ki (α2A receptor): 3310 nM; Ki (α2C receptor; PKi alpha-2 2c): 1450 nM |
| CC(=O)C1=C(C)NC(COCCN)=C(C(=O)NCCCN2CCC(c3ccccc3)(c3ccccc3)CC2)C1c1ccc([N+](=O)[O-])cc1 (stereo not shown) [Example 237, 5-Acetyl-2-((2-aminoethyl)oxy)methyl-1,4-dihydro-6-methyl-4-(4-nitro)phenyl 3-(N-(3-(4,4-diphenylpiperidin-1-yl)propyl)) carboxamidopyridine] |  | 2.63 | 794 | 324 |  |
| CCOC(=O)C1(c2ccccc2)CCN(CCCNC(=O)C2=C(COCC(F)(F)F)NC(C)=C(C(N)=O)C2c2ccc([N+](=O)[O-])cc2)CC1 (stereo not shown) [Example 243, 5-Carboxamido-3-(N-(3-(4-ethoxycarbonyl-4-phenylpiperidin-1yl)propyl))carboxamido-2-((2,2,2-trifluoroethyl)oxy)methyl-1,4dihydro-6-methyl-4-(4-nitro)phenylpyridine] |  |  |  |  | Ki [1, 9]: 5.75 nM; Ki (α2A receptor; [10]): 2240 nM; Ki (α2C receptor; [11]): 1070 nM |
| COC(=O)C1(c2ccccc2)CCN(CCCNC(=O)C2=C(COCCN)NC(C)=C(C(C)=O)C2c2ccc(F)cc2)CC1 (stereo not shown) [Example 245, 5-Acetyl-2-((2-aminoethyl)oxy)methyl-4-(4-fluoro)phenyl-1,4-dihydro-3-(N-3-(4-methoxycarbonyl-4-phenylpiperidin-1-yl)propyl)carboxamido-6-methylpyridine] |  |  |  |  | Ki [1, 9]: 5.01 nM; Ki (α2A receptor; [10]): 1050 nM; Ki (α2C receptor; [11]): 316 nM |
